Assay results as given in patent US8518946B2, “Salts of (R)-7-[3-amino-4-(2,4,5-trifluorophenyl)butanoyl]-3-trifluoromethyl-5,6,7,8-tetrahydroimidazo[1,5-a] pyrazine-1-carboxylic acid, preparation method and medical use thereof” (Jiangsu Hengrui Medicine Co., Ltd., priority 2009, dated 2013).
Where two headings read alike, the source gives them in different places.

Columns and labels:
[1] = Solubility experiment in four systems; type: physicochemical
Description: According to the conventional solubility measurement, the solubility of the test samples were determined in four different systems: phosphate buffer solution (PBS, pH=7.4), methanol, 0.1% hydrochloric acid and water.

[2] = Pharmacokinetics assay in rats (LC/MS/MS plasma concentration); type: in vivo, SD rats; settings: for half-life / AUC(0-t) / CL/F / Cmax / MRT / Tmax / Vd/F: intragastric 3.0 mg/kg; for MRT: read-out: MRT; for Tmax: read-out: Tmax; for Vd/F: read-out: Vz/F; for F: intragastric 3.0 mg/kg (as free base), absolute bioavailability from AUC0-t vs vein injection
Description: The compound of Example 3 was administrated intragastrically or tail vein injection to rats and the compounds of Example 1-4, Example 9 and Example 11-12 were administrated intragastrically to determine the drug concentration in plasma at different time points by LC/MS/MS measurement. The pharmacokinetics of the compounds of the present invention was studied and evaluated in rats. And the oral absolute bioavailability was investigated.
Compounds of Example 1-4, Example 9 and Example 11-12.
[…] healthy adult SD rats, male and female in half, were purchased from SINO-BRITSH SIPPR/BK LAB.ANIMAL LTD., CO, License number: SCXK (Shanghai) 2008-0016.
Vein injection group: the proper weighed test compound was dissolved in 0.5 mL of DMSO by ultrasound and then diluted with normal saline to 15 mL to form a 0.3 mg/mL solution.
Intragastrically administered group: the proper weighed test compound was dissolved in 0.5% CMC-Na by ultrasound to form a 0.3 mg/mL of suspension.
32 healthy adult SD rats, male and female in half, were divided into 8 groups so that each group consisted 4 rats. After an overnight fast, the rats were tail vein injected of the compound of Example 3 and intragastrically administered the compound of Example 3 and the salt thereof, at a dose of 3.0 mg/kg (calculated as the free base form) and a volume of 10 mL/kg.
Blood samples (0.2 mL) of the rats in vein injection group were taken from eye socket at pre administration and at 2, 15, 30 minutes and 1.0, 2.0, 4.0, 6.0, 8.0, 12.0, 24.0 hours post administration, which were stored in heparinized tubes and centrifuged for 10 minutes at 3,500 rpm. The plasma samples were stored at −20° C. until analysis. The rats were fed 2 hours after administration.
Blood samples of the rats in intragastrically administered group were taken at pre administration and at 0.5, 1.0, 2.0, 3.0, 4.0, 6.0, 8.0, 12.0, 24.0 hours post administration. The samples were treated with the same method as mentioned above.
50 μL of internal standard solution and 150 μL of methanol were added to 50 μL of rat plasma obtained at various time points after administration. Then the mixture was mixed for 3 minutes using a vortexer and centrifuged for 10 minutes at 13,500 rpm. 10 μL of the supernatant was analyzed by LC/MS/MS.
The compartmental model of pharmacokinetics was fitted for the test compounds and the major pharmacokinetic parameters were calculated by DAS 2.0 software in which Cmax and tmax were the actually measured values. The absolute bioavailability was calculated by AUC0-t taken from post administration and vein injection.

DPP-VIII = target: T1, DPP-VIII (Homo sapiens, UniProt Q6V1X1); assay: DPP-VIII inhibition, Promega DPPIV-Glo Protease Assay; type: biochemical; settings: read-out: IC50 DPP8
T1 construct: purchased Bioscience 80080
Description: (§1) The compounds of the present invention were tested to determine their DPP-IV, DPP-VIII, DPP-IX inhibition activity according to the following methods. The half inhibition concentrations IC50 (the concentration of the test compound showing 50% inhibition to the enzyme activity) of each compound were determined by reaction test and calculation of the mixture of fixed amounts of enzyme and substrate with several different concentrations of the test compounds.
(§2) The compounds of the present invention were tested to determine the DPP-IV, DPP-VIII, DPP-IX inhibition activity in the following tests using Promega DPPIV-Glo™ Protease Assay (Cat No. G8350/G8351) Kit, wherein:
b. DPP-VIII enzyme bought from Bioscience, Catalog no. 80080;
(§3) The preparation procedure of the conventional reagent such as DPPIV-Glo buffer, luciferin reagents needed in the test and the detail operation of the test can refer to the specifications of the kits. The assay was carried out as following steps:
(§4) The tested compounds were dissolved in DMSO to prepare a series of different concentrations of the test compound solution. DPPIV-Glo buffer and the freezing luciferin detection reagent were equilibrated to room temperature. The luciferin detection reagent was dissolved in moderate buffer in a brown flask to form a solution. Then DPP-IV-Glo. was dissolved in ultrapure water to give the appropriate concentration. The substrate solution and the luciferin detection reagent solution were mixed sufficiently in an appropriate ratio (the ratio of the invention is 1:49), and the mixture was layed at room temperature for 30-60 minutes. Tris buffer (2 mM, pH 8.0), the test compounds and DPP-IV (DPP-VIII or DPP-IX) were mixed and then transferred to a 96-well plate. Each test contains double-well of three-well control. The same volume of DMSO was added to the negative control and blank control. Then the 96-well plate was added with mixed solution of luciferin detection reagent and substrate to initiate the reaction. The 96-wells plate was incubated at room temperature on a plate shaker for 40 minutes after sealed. The strength of the fluorescent signal in each well was determined by microplate reader and the inhibition rate to the enzyme of the compound at this concentration was calculated by the formula as following: inhibitory rate: IR=[1−(S−B)/(N−B)]*100% • S: value of the sample • B: value of the blank control • N: value of the negative control
(§5) IC50 of the test compounds can be calculated by the inhibition rate at different concentration.

DPP-IV [3] = target: T2, DPP-IV (Homo sapiens, UniProt P27487); settings: example 10 of PCT/CN2008/001936; cited from earlier work
T2 construct: purchased Calbiochem 317630

DPP-IX = target: T3, DPP-IX (Homo sapiens, UniProt Q86TI2); assay: DPP-IX inhibition, Promega DPPIV-Glo Protease Assay; type: biochemical; settings: read-out: IC50 DPP9
T3 construct: purchased Bioscience 80090
Description: as §1, §2
c. DPP-IX enzyme bought from Bioscience, Catalog no. 80090.
as §3, §4, §5

normal ICR mice = assay: Hypoglycemic effect, oral glucose tolerance in normal ICR mice; type: in vivo; settings: 10 mg/kg by gavage, glucose 4 g/kg 15 minutes after administration
Description: To observe the effects on oral glucose tolerance of the compounds of Example 1-4 and Example 8-12 in normal ICR mice (SINO-BRITSH SIPPR/BK LAB.ANIMAL LTD., CO), the hypoglycemic effects in vivo have been evaluated using blood-glucose meter to measure and analyze the sugar content of the samples at different time points during 2 hours. The samples were taken from the mouse's tail.
The administration dose was 10 mg/kg, and the blank was administered with water. Both groups contained 5% DMSO.
The mice were administered by gavage. 4 g/kg of 10% glucose solution was administered (0.8 mL to each mice) 15 minutes after administration.
The mice were administered according to above dose (the blank group was administrated with 5% DMSO aqueous solution) and the blood sugar value was measured (−15 minutes).
15 minutes after administration, the mice were administered of 4 g/kg of 20% glucose solution and the values of blood sugar were tested by Roche ACCU-CHEK at 0, 15, 30, 45, 60, 120 minutes.

DPP-IV [4] = target: T2, DPP-IV; assay: DPP-IV inhibition, Promega DPPIV-Glo Protease Assay; type: biochemical
Description: as §1, §2
a. DPP-IV enzyme bought from Calbiochem, Catalog no. 317630;
as §3, §4, §5

[5] = 0.1% hydrochloric acid, simulated gastric fluid, 0.1% hydrochloric acid, read-out: Solubility Value, 0.1% HCl
[6] = methanol, organic solvent or mixture, methanol, read-out: Solubility Value, methanol
[7] = phosphate buffer solution (PBS), pH 7.4, aqueous buffer, PBS pH 7.4, read-out: Solubility Value, PBS (pH 7.4)
[8] = water, read-out: Solubility Value, water
[9] = both sexes, SD, rat, plasma, po, 3 mg/kg
[10] = both sexes, SD, rat, plasma, po, 3 mg/kg, read-out: AUC0-t
[11] = both sexes, SD, rat, plasma, po, 3 mg/kg, read-out: CL/F (converted)
[12] = both sexes, SD, rat, plasma, po, 3 mg/kg, read-out: Cmax

T1 sequence (Q6V1X1 whole entry): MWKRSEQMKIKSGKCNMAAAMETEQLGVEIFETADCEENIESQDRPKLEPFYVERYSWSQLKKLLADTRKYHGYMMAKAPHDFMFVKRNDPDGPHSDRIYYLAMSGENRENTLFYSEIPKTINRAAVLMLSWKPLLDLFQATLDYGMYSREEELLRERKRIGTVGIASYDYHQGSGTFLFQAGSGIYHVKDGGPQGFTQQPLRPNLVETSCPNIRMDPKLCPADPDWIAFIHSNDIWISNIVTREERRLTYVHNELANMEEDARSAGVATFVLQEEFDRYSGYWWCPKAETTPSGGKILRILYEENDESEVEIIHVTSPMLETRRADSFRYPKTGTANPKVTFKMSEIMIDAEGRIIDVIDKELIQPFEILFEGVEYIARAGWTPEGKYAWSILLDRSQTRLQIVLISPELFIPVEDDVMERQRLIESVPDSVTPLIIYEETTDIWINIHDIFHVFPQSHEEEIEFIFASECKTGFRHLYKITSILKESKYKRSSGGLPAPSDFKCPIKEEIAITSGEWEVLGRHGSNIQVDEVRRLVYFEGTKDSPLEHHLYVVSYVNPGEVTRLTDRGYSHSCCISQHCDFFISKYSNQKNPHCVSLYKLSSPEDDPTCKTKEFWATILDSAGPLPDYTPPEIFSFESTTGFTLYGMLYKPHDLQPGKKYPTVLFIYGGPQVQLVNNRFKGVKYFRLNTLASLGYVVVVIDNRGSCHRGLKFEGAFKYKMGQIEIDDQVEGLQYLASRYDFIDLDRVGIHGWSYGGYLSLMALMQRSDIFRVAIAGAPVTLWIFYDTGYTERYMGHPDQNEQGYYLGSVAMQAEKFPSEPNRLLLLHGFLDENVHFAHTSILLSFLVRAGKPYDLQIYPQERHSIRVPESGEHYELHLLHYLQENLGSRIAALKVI
T3 sequence (Q86TI2 whole entry): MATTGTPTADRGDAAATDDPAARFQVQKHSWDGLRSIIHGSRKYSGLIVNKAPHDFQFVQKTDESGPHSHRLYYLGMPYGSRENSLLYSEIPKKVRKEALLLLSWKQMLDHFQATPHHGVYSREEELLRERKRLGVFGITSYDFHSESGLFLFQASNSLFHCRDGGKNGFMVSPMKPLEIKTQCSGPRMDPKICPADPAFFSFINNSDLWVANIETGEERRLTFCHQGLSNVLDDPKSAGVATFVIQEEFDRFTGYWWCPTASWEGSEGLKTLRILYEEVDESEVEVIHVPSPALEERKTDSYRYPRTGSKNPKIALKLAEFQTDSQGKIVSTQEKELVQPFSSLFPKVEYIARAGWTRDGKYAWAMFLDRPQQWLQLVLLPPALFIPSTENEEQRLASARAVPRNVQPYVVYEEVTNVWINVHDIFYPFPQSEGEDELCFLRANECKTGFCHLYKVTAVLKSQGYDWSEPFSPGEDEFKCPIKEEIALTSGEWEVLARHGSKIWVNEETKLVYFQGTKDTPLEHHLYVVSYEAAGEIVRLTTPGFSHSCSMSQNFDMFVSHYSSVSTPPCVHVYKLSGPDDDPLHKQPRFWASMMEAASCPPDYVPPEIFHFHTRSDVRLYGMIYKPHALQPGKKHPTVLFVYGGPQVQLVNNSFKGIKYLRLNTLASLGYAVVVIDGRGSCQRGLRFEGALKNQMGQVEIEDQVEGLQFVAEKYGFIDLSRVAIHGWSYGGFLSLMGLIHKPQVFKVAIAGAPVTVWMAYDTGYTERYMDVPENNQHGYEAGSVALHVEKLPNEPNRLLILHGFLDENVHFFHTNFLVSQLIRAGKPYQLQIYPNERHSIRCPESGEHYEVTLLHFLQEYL
T2 sequence (P27487 whole entry): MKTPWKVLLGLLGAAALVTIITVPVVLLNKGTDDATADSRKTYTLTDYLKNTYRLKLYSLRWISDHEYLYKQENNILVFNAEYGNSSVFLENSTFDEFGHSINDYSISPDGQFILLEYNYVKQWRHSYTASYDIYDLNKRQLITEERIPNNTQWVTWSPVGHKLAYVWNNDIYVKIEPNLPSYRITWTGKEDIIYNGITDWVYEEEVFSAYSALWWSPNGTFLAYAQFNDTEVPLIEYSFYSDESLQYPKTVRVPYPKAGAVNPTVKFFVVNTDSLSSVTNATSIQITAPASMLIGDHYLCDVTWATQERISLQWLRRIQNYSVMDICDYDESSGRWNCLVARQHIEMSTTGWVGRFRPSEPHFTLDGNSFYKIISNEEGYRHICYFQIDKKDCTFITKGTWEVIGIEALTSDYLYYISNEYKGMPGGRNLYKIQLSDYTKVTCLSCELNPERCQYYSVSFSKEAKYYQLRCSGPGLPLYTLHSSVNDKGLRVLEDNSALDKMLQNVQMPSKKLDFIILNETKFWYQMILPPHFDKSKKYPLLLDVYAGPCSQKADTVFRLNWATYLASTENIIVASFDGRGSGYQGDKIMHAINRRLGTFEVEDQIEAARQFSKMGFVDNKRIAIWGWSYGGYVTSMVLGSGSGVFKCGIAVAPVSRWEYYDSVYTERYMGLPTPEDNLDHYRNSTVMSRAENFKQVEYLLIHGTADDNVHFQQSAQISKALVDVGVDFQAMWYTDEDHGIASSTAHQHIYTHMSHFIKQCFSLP

Cl.N[C@@H](CC(=O)N1CCn2c(C(F)(F)F)nc(C(=O)O)c2C1)Cc1cc(F)c(F)cc1F [Example 1, (R)-7-[3-Amino-4-(2,4,5-trifluorophenyl)-butanoyl]-3-trifluoromethyl-5,6,7,8-tetrahydro-imidazo[1,5-a]pyrazine-1-carboxylic acid hydrochloride] showed a solubility [1, 5] of 17.2 mg/mL, a solubility [1, 6] of 31.3 mg/mL and a solubility [1, 7] of 18.6 mg/mL. The solubility [1, 8] was 20.9 mg/mL, the half-life [2, 9] was 1.74 ± 0.16 h and the AUC(0-t) [2, 10] was 66.6 ± 19.5 ng·h/mL. The CL/F [2, 11] was 760 mL/min/kg, the Cmax [2, 12] was 18 ± 7.5 ng/mL and the MRT [2, 9] was 3.17 ± 0.36 h. For the same compound, the Tmax [2, 9] was 2.5 ± 1 h, the Vd/F [2, 9] was 114 ± 27 L/kg and the F [2] was 2.90%. The IC50 (DPP-VIII) was 87.9 µM, the “inhibition activity against DPP-IV (in words)” value (DPP-IV [3]) was “excellent inhibition activity” and the IC50 (DPP-IX) was 63.6 µM. The “Hypoglycemic rate of blood sugar of 30 minutes after administration” value (“Hypoglycemic rate” for short) (normal ICR mice) was 16.06%.
Compound N[C@@H](CC(=O)N1CCn2c(C(F)(F)F)nc(C(=O)[O-])c2C1)Cc1cc(F)c(F)cc1F.[Na+] [Example 4, Sodium (R)-7-[3-amino-4-(2,4,5-trifluorophenyl)butanoyl]-3-trifluoromethyl-5,6,7,8-tetrahydro-imidazo[1,5-a]pyrazine-1-carboxylate] has a solubility [1, 5] of 94.8 mg/mL, a solubility [1, 6] of 46.7 mg/mL and a solubility [1, 7] of 57.4 mg/mL. The solubility [1, 8] was 43.5 mg/mL, the half-life [2, 9] was 2.65 ± 0.94 h and the AUC(0-t) [2, 10] was 66.6 ± 10.6 ng·h/mL. The CL/F [2, 11] was 728 mL/min/kg, the Cmax [2, 12] was 14.2 ± 2 ng/mL and the MRT [2, 9] was 4.3 ± 0.6 h. For the same compound, the Tmax [2, 9] was 1.75 ± 0.96 h, the Vd/F [2, 9] was 164 ± 56 L/kg and the F [2] was 2.90%. It also gave an IC50 (DPP-VIII) of 77.3 µM, an IC50 (DPP-IV [4]) of 0.022 µM and an IC50 (DPP-IX) of 42.3 µM. The “Hypoglycemic rate” value (normal ICR mice) was 9.49%.
For N[C@@H](CC(=O)N1CCn2c(C(F)(F)F)nc(C(=O)O)c2C1)Cc1cc(F)c(F)cc1F [Example 9, 2-Hydroxyethylammonium (R)-7-[3-amino-4-(2,4,5-trifluorophenyl)butanoyl]-3-trifluoromethyl-5,6,7,8-tetrahydro-imidazo[1,5-a]pyrazine-1-carboxylate], the “Solubility Value, 0.1% HCl” value ([1]; 0.1% hydrochloric acid) was 12.6 mg/mL, the “Solubility Value, PBS (pH 7.4)” value ([1]; PBS pH 7.4) was 0.3 mg/mL and the “Solubility Value, methanol” value ([1]; methanol) was 35.2 mg/mL. For the same compound, the “Solubility Value, water” value ([1]; water) was 1.0 mg/mL, the half-life [2, 9] was 3.18 ± 0.71 h and the MRT [2, 9] was 4.34 ± 0.66 h. For the same compound, the Tmax [2, 9] was 1.25 ± 0.5 h, the AUC(0-t) [2] was 93.2 ± 36.4 ng·h/mL and the CL/F [2] was 548 ± 167 mL/min/kg. For the same compound, the Cmax [2] was 25.1 ± 13.9 ng/mL, the F [2] was 4.06% and the IC50 (DPP-VIII) was 114 µM. The IC50 (DPP-IV [4]) was 0.012 µM, the IC50 (DPP-IX) was 128 µM and the “Hypoglycemic rate” value (normal ICR mice; 10 mg/kg) was 27.56%.
Work on N[C@@H](CC(=O)N1CCn2c(C(F)(F)F)nc(C(=O)O)c2C1)Cc1cc(F)c(F)cc1F.O=C(O)C[C@H](O)C(=O)O [Example 11, (R)-7-[3-Amino-4-(2,4,5-trifluorophenyl)butanoyl]-3-trifluoromethyl-5,6,7,8-tetrahydro-imidazo[1,5-a]pyrazine-1-carboxylic acid (2S)-2-hydroxybutanedioic acid] yielded a solubility [1, 5] of 32.6 mg/mL, a solubility [1, 6] of 5.4 mg/mL and a solubility [1, 7] of 19.5 mg/mL. It also gave a solubility [1, 8] of 22.2 mg/mL, a half-life [2, 9] of 2.21 ± 0.69 h and an AUC(0-t) [2, 10] of 69.5 ± 25.2 ng·h/mL. For the same compound, the CL/F [2, 11] was 777 mL/min/kg, the Cmax [2, 12] was 13.5 ± 3.9 ng/mL and the MRT [2, 9] was 4.5 ± 1.32 h. The Tmax [2, 9] was 1.63 ± 1.11 h, the Vd/F [2, 9] was 140 ± 39 L/kg and the F [2] was 3.03%. It also gave an IC50 (DPP-VIII) of 280 µM, an IC50 (DPP-IV [4]) of 0.009 µM and an IC50 (DPP-IX) of 180 µM. The “Hypoglycemic rate” value (normal ICR mice) was 20.18%.
N[C@@H](CC(=O)N1CCn2c(C(F)(F)F)nc(C(=O)O)c2C1)Cc1cc(F)c(F)cc1F.O=C(O)C(O)C(O)C(=O)O [Example 12, (R)-7-[3-Amino-4-(2,4,5-trifluorophenyl)butanoyl]-3-trifluoromethyl-5,6,7,8-tetrahydro-imidazo[1,5-a]pyrazine-1-carboxylic acid (2S,3S)-2,3-dihydroxybutanedioic acid] showed a solubility [1, 5] of 33.8 mg/mL, a solubility [1, 6] of 0.5 mg/mL and a solubility [1, 7] of 12.3 mg/mL. It also gave a solubility [1, 8] of 19.5 mg/mL, a half-life [2, 9] of 2.54 ± 0.86 h and an AUC(0-t) [2, 10] of 74.6 ± 21.7 ng·h/mL. The CL/F [2, 11] was 672 mL/min/kg, the Cmax [2, 12] was 17 ± 6.9 ng/mL and the MRT [2, 9] was 4.23 ± 0.84 h. For the same compound, the Tmax [2, 9] was 1.75 ± 0.5 h, the Vd/F [2, 9] was 154 ± 77 L/kg and the F [2] was 3.25%. The IC50 (DPP-VIII) was 244 µM, the IC50 (DPP-IV [4]) was 0.012 µM and the IC50 (DPP-IX) was 135 µM. For the same compound, the “Hypoglycemic rate” value (normal ICR mice) was 24.11%.
